Tests used:
[1] = test system: human tumor cell lines (9 panels); test: NCI growth inhibition screen, all panels; format: cell-based; settings: for activity as compared to ET-18-OCH3 (in words): all NCI panels; for activity compared to ET-18-OCH3 isomers (in words): colon and CNS panels of cell lines
Method: (§1) Candidates deemed suitable for in vivo testing were then synthesized in large scale quantities and some of this material was sent to the NCI's Developmental Therapeutics Program for a battery of growth inhibitory studies against various human tumor cell lines (60 cell lines, 9 different panels). The remainder of the material was used to assess in vivo efficacy using murine tumor models. Additionally, studies were conducted on the lead candidates to discern mechanism of action with particular emphasis on these agents apoptotic ability as measured by caspase 3 activity. The details (materials and methods) for these various assays are described further in the following discussion.
(§2) Ten compounds were also sent to NCI's Drug Discovery Program for screening against numerous human tumor cell lines (9 panels total: renal ovarian, colon, CNS, non-small cell lung, leukemia, breast, melanoma, and prostate). The data are shown in FIGS. 2a-i which also include data regarding D- and L-ET-18-OCH3 (listed as L-EL and D-EL in the figures). Upon examining the data, one is struck by how 1R and 1a′S standout in comparison to the other compounds, especially for the renal, ovarian, colon, and CNS panels.

OVCAR-4 = test: NCI growth inhibition screen, ovarian panel; format: cell-based, human; set-up: key to Performance as compared to ET-18-O—CH3: = means equivalent activity; + means that it appears to be significantly better (i.e., by ˜2x); < means it appears to be less active than ET18OCH3 (˜2x); a combination like =/+ or </+ means that activity is dependent upon the isomer; a combination like =/+ or </+ means that activity is dependent upon the isomer; settings: for activity compared to both ET-18-OCH3 isomers (in words): OVCAR-4, NCI screen; for Performance as compared to ET-18-O—CH3: OVCAR-4, Ovarian, from GI50s
Method: as §1, §2

OVCAR-5 = test: NCI growth inhibition screen, ovarian panel; format: cell-based, human; set-up: key to Performance as compared to ET-18-O—CH3: = means equivalent activity; + means that it appears to be significantly better (i.e., by ˜2x); < means it appears to be less active than ET18OCH3 (˜2x); a combination like =/+ or </+ means that activity is dependent upon the isomer; a combination like =/+ or </+ means that activity is dependent upon the isomer; settings: for activity compared to both ET-18-OCH3 isomers (in words): OVCAR-5, NCI screen; for Performance as compared to ET-18-O—CH3: OVCAR-5, Ovarian, from GI50s
Method: as §1, §2

SF-268 = test: NCI growth inhibition screen, CNS panel; format: cell-based, human; set-up: key: = means equivalent activity; + means that it appears to be significantly better (i.e., by ˜2x); < means it appears to be less active than ET18OCH3 (˜2x); a combination like =/+ or </+ means that activity is dependent upon the isomer; a combination like =/+ or </+ means that activity is dependent upon the isomer; settings: SF-268, CNS; from GI50s
Method: as §1, §2

SF-295 = test: NCI growth inhibition screen, CNS panel; format: cell-based, human; set-up: key: = means equivalent activity; + means that it appears to be significantly better (i.e., by ˜2x); < means it appears to be less active than ET18OCH3 (˜2x); a combination like =/+ or </+ means that activity is dependent upon the isomer; a combination like =/+ or </+ means that activity is dependent upon the isomer; settings: SF-295, CNS; from GI50s
Method: as §1, §2

SF-539 = test: NCI growth inhibition screen, CNS panel; format: cell-based, human; set-up: key: = means equivalent activity; + means that it appears to be significantly better (i.e., by ˜2x); < means it appears to be less active than ET18OCH3 (˜2x); a combination like =/+ or </+ means that activity is dependent upon the isomer; a combination like =/+ or </+ means that activity is dependent upon the isomer; settings: SF-539, CNS; from GI50s
Method: as §1, §2

SNB-19 = test: NCI growth inhibition screen, CNS panel; format: cell-based, human; set-up: key: = means equivalent activity; + means that it appears to be significantly better (i.e., by ˜2x); < means it appears to be less active than ET18OCH3 (˜2x); a combination like =/+ or </+ means that activity is dependent upon the isomer; a combination like =/+ or </+ means that activity is dependent upon the isomer; settings: SNB-19, CNS; from GI50s
Method: as §1, §2

U-251 = test: NCI growth inhibition screen, CNS panel; format: cell-based, human; set-up: key: = means equivalent activity; + means that it appears to be significantly better (i.e., by ˜2x); < means it appears to be less active than ET18OCH3 (˜2x); a combination like =/+ or </+ means that activity is dependent upon the isomer; a combination like =/+ or </+ means that activity is dependent upon the isomer; settings: U-251, CNS; from GI50s
Method: as §1, §2

DU145 = test: NCI growth inhibition screen, prostate panel; format: cell-based, human; set-up: key: = means equivalent activity; + means that it appears to be significantly better (i.e., by ˜2x); < means it appears to be less active than ET18OCH3 (˜2x); a combination like =/+ or </+ means that activity is dependent upon the isomer; a combination like =/+ or </+ means that activity is dependent upon the isomer; settings: from GI50s
Method: as §1, §2

PC-3 = test: NCI growth inhibition screen, prostate panel; format: cell-based, human; set-up: key: = means equivalent activity; + means that it appears to be significantly better (i.e., by ˜2x); < means it appears to be less active than ET18OCH3 (˜2x); a combination like =/+ or </+ means that activity is dependent upon the isomer; a combination like =/+ or </+ means that activity is dependent upon the isomer; settings: PC-3, Prostate; from GI50s
Method: as §1, §2

NCI-H332M = test: NCI growth inhibition screen, non-small cell lung panel; format: cell-based, human; set-up: key: = means equivalent activity; + means that it appears to be significantly better (i.e., by ˜2x); < means it appears to be less active than ET18OCH3 (˜2x); a combination like =/+ or </+ means that activity is dependent upon the isomer; a combination like =/+ or </+ means that activity is dependent upon the isomer; settings: NS cell lung, from GI50s
Method: as §1, §2

CCRF-CEM = test: NCI growth inhibition screen, leukemia panel; format: cell-based, human; set-up: key: = means equivalent activity; + means that it appears to be significantly better (i.e., by ˜2x); < means it appears to be less active than ET18OCH3 (˜2x); a combination like =/+ or </+ means that activity is dependent upon the isomer; a combination like =/+ or </+ means that activity is dependent upon the isomer; settings: from GI50s
Method: as §1, §2

HL-60 = test: NCI growth inhibition screen, leukemia panel; format: cell-based, human; set-up: key: = means equivalent activity; + means that it appears to be significantly better (i.e., by ˜2x); < means it appears to be less active than ET18OCH3 (˜2x); a combination like =/+ or </+ means that activity is dependent upon the isomer; a combination like =/+ or </+ means that activity is dependent upon the isomer; settings: HL-60, Leukemia; from GI50s
Method: as §1, §2

SMILES	activity as compared to ET-18-OCH3 (in words) [1]	activity compared to ET-18-OCH3 isomers (in words) [1]	activity compared to both ET-18-OCH3 isomers (in words) (OVCAR-4)	Performance as compared to ET-18-O—CH3 (OVCAR-4)	activity compared to both ET-18-OCH3 isomers (in words) (OVCAR-5)	Performance as compared to ET-18-O—CH3 (OVCAR-5)	Performance as compared to ET-18-O—CH3 (SF-268)	Performance as compared to ET-18-O—CH3 (SF-295)	Performance as compared to ET-18-O—CH3 (SF-539)	Performance as compared to ET-18-O—CH3 (SNB-19)	Performance as compared to ET-18-O—CH3 (U-251)	Performance as compared to ET-18-O—CH3 (DU145)	Performance as compared to ET-18-O—CH3 (PC-3)	Performance as compared to ET-18-O—CH3 (NCI-H332M)	Performance as compared to ET-18-O—CH3 (CCRF-CEM)	Performance as compared to ET-18-O—CH3 (HL-60)
CCCCCCCCCCCCCCCCCCOC[C@@H](COP(=O)([O-])OCC[N+](C)(C)C)OS(C)(=O)=O [1a′S]	equal or greater in activity	more active than even the ET-18-OCH3 isomers	significantly better activity	2048	significantly better activity	4096	0	0	8192	0	=/+	0	0	0	0	0
CCCCCCCCCCCCCCCCCCOCC(COP(=O)([O-])OCC[N+](C)(C)C)OS(C)(=O)=O (centres unmarked) [Compound 1aR]	equal or greater in activity	more active than even the ET-18-OCH3 isomers	significantly better activity	+	significantly better activity	+	=	=	+	=	+	=	=	=	=	=

— US20060122153A1, “Antineoplastic ether lipid compounds with modifications at the sn-2 carbon” (priority 2003, published 2006)
